Results published in patent US9943560B2, “Medical compositions containing liquorice extracts with synergistic effect” (priority 2010, dated 2018).
Values after ≈ are worked out from the molar mass of the structure shown. Values joined by “and” are separate entries in the source; they are usually repeats but may differ in a detail not shown here. Equal entries are not always repeated.

Experiments:
[1] = tested on: colon cancer cell strain colon38 transplanted tumor; experiment: Anti-tumor effect on colon38 transplanted tumor in mice; format: in vivo; conditions: for Death number: dead animals of 10 per group, represents side effects; for Death number / Average weight of tumor / Tumor inhibiting rate: dose as in Table VI; for Average weight of tumor: mice, once a week, four times; for Average weight of tumor / Tumor inhibiting rate: after four weeks; for Tumor inhibiting rate: vs CK group
Excerpt: Based on the method described in Pharmacology Research Methodology of Chinese Medicine (Chinese TCM Publishing House), test the anti-tumor effects of Chalcone A, G007, AG007-16 etc prepared in Embodiment 1, chemotherapy drugs (5-fluorouracil) and HBD09 on animal model of human cancer heterogeneity transplanted tumor. 5-fluorouracil (short for fu) is a broad-spectrum anti-tumor drug and mainly used to cure digestive tract tumor; the common adverse reactions are sicchasia, anorexia or vomiting, abdominal discomfort or diarrhea.
The dose given is as shown in Table VI; intragastric administration/ or injection administration is given once a week and four times in total.

Colon38 cells = experiment: In vitro killing of Colon38 cells (MTS, 72 h); format: cell-based, murine; conditions: Colon38, 72 h
Description: 1. Experimental Sources of In Vitro Killing Colon38 Cells
Colon38 cells i.e. murine colon carcinoma cells, which was gifted from Dept. of Pharmacology, Yale Medical School and are a kind of adherent cells.
(§1) 90% 1640 culture solution plus 10% newborn calf serum (NCS), 100 ml in total, and then add lml miscible liquids containing 1% penicillin and 1% streptomycin.
Cultivate it in an incubator of 37° C. with 5% CO2. The cells will passage every 3 days, and carry out the experiment when the cells enter their logarithmic growth period after two or three times of passage.
2. Experiment on In Vitro Killing of SGC-7901 Cell Source: […]

SGC-7901 cells = experiment: In vitro killing of SGC-7901 cells (MTS, 72 h); format: cell-based, human; conditions: SGC-7901, 72 h
Description: SGC-7901 cells i.e. human gastric cancer cells which are bought from Cell Bank of Chinese Academy of Sciences/Shanghai Institute of Life Sciences Cell Resource Center of Chinese Academy of Sciences are adherent cells.
as §1
Cultivate it in an incubator of 37° C. with CO2 of 5 percent. The cells will passage once every 3 days, and carry out the experiment when the cells enter their logarithmic growth period after two or three times of passage.
3. Experiment on In Vitro Killing of MCF-7 Cell Source

MCF-7 cells = experiment: In vitro killing of MCF-7 cells (MTS, 72 h); format: cell-based, human; conditions: MCF-7, 72 h
Description: MCF-7 cells i.e. human breast cancer cells, which are bought from American ATCC, is a kind of adherent cells.
90% 1640 medium+10% fetal calf serum+30mmol/L Hepes+6 μg/ml insulin.
Its culture conditions and experimental procedures are all the same with that of the above method 1.

PC-3 cells = experiment: In vitro killing of PC-3 cells (MTS, 72 h); format: cell-based; conditions: PC-3, 72 h
Excerpt: 4. Experiment on In Vitro Killing of PC-3 Cell
PC-3 cells i.e. prostate cancer cells, which are bought from American ATCC, is a kind of adherent cells.
Its medium, culture conditions and experimental procedures are all the same with that of the above method 1.

Colon 38 = experiment: Drug combination on inhibiting tumor cells, Combination Index (Chou-Talalay), Colon 38; format: cell-based, murine; conditions: partner drugs as named in the sentence (G007, I3C, DIM, Cis-platinum)
Excerpt: According to the cells and experiment methods used in Embodiment 2, differences are incurred from that dose concentration is confirmed by the following methods: when two drugs are combined, the concentration of one drug is chosen to be approximate to but smaller than IC50 while the concentration of other drugs is chosen to be in gradient dilution, to perform a series of experiments. When it is experimented that 50% tumor cells are inhibited, then the concentration of all drugs used at that moment is recorded as their IC50 value, and the CI value of the two drugs can be calculated with the formula in the above document.

[2] = tested on: postprandial blood glucose of Type 2 diabetics; experiment: Clinical observation: postprandial blood glucose control in high-blood-glucose patients; format: in vivo, human
Excerpt: The postprandial blood glucose of Type 2 diabetics not sensitive to insulin is an important index of abnormal glucose metabolism and can be used to test the effect of drugs in reducing blood glucose.

SMILES | Death number [1] | Average weight of tumor [1] [g] | Tumor inhibiting rate [1] [%] | IC50 (Colon38 cells) [µg/mL] | IC80 (Colon38 cells) [µg/mL] | IC50 (SGC-7901 cells) [µg/mL] | IC80 (SGC-7901 cells) [µg/mL] | IC50 (MCF-7 cells) [µg/mL] | IC80 (MCF-7 cells) [µg/mL] | IC50 (PC-3 cells) [µg/mL] | IC80 (PC-3 cells) [µg/mL] | synergistic effects in combination (Colon 38) | ratio of glucose reduction ([2]; average after-meal glucose with vs without drug intake) [%] | Average blood glucose, drug intake, after meal ([2]; average of three patients, two hours after meal) [mM/L] | effect on controlling postprandial blood glucose ([2]; high-blood-glucose patients, compared with soybean) | Blood glucose, drug intake, before meal ([2]; individual patient, oral dose before meal) | Blood glucose, drug intake, after meal ([2]; individual patient, two hours after 300 g boiled corn, oral dose before meal) | anti-tumor effect and side effects in the animal model ([1]; alone or in combination with 5-fluorouracil)
O=c1[nH]cc(F)c(=O)[nH]1 [CK1(fu), 5-fluorouracil] | 6 | 1.74 ± 0.11 | 43 |  |  |  |  |  |  |  |  |  |  |  |  |  |  | 
C=CC(C)(C)c1cc(/C=C/C(=O)c2ccc(O)cc2)c(OC)cc1O [Chalcone A] | 0 | 2.36 ± 0.13 | 23 | 9.1 (≈ 26.9 µM) | 24.77 (≈ 73.2 µM) | 9.7 (≈ 28.7 µM) | 29.70 (≈ 87.8 µM) | 9.1 (≈ 26.9 µM) | 21.3 (≈ 62.9 µM) | 7.8 (≈ 23 µM) | 13.3 (≈ 39.3 µM) | synergistic effects | 13.6 | 11.4 | significant effects | 7.9 mM/L and 8.6 mM/L and 8.5 mM/L | 10.6 mM/L and 12.0 mM/L and 11.6 mM/L | reduce the side effects brought by 5-fluorouracil dose
N.N.[Cl][Pt][Cl] [Cis-platinum] |  |  |  | 3.92 |  | 5.4 |  | 3.92 |  |  |  |  |  |  |  |  |  | 
c1ccc2c(Cc3c[nH]c4ccccc34)c[nH]c2c1 [HBD09, bis-indolymethane] | 2 | 2.6 ± 0.15 | 15 | 18.59 (≈ 75.5 µM) | 48.51 (≈ 197 µM) | 18.2 (≈ 73.9 µM) | 51.24 (≈ 208 µM) | 15.6 (≈ 63.3 µM) | 31.2 (≈ 127 µM) | 13.8 (≈ 56 µM) | 23.9 (≈ 97 µM) |  |  |  |  |  |  | 
